“And” between values parts separate entries of the source, which are not always exact repeats. Equal values may be shown once. Toxic doses and inconclusive results are not listed. Rule as the data show it: active = T/C of 150% or more; inactive = T/C below 125%.
Tested on: L1210 leukemia ip in BDF1 mice, survival T/C
Experiment: NCI In Vivo Anticancer Drug Screen. Data for tumor model L1210 Leukemia (intraperitoneal) in B6D2F1 (BDF1) mice
Conditions: endpoint: mean survival time, higher = longer survival
In short: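 Tumor cells were implanted, animals were treated, and survival was followed. The result divides the treated measurement by the vehicle-control measurement.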

[1] = dose: 100.0 mg/kg/injection, schedule: Q01DX001 (ip), vehicle: saline
[2] = dose: 100.0 mg/kg/injection, schedule: Q04DX003 (ip), vehicle: saline with Tween-80
[3] = dose: 200.0 mg/kg/injection, schedule: Q01DX001 (ip), vehicle: saline
[4] = dose: 200.0 mg/kg/injection, schedule: Q04DX003 (ip), vehicle: saline with Tween-80
[5] = dose: 400.0 mg/kg/injection, schedule: Q01DX001 (ip), vehicle: saline
[6] = dose: 400.0 mg/kg/injection, schedule: Q04DX003 (ip), vehicle: saline with Tween-80
[7] = dose: 100.0 mg/kg/injection, schedule: Q04DX003 (ip), vehicle: Klucel (hydroxypropylcellulose) (HPC)
[8] = dose: 200.0 mg/kg/injection, schedule: Q04DX003 (ip), vehicle: Klucel (hydroxypropylcellulose) (HPC)
[9] = dose: 400.0 mg/kg/injection, schedule: Q04DX003 (ip), vehicle: Klucel (hydroxypropylcellulose) (HPC)
[10] = dose: 100.0 mg/kg/injection, schedule: Q01DX001 (ip), vehicle: Klucel (hydroxypropylcellulose) (HPC)

Measured: T/C

Cc1ccc(Cl)c(OCc2cc(=O)[nH]c(=O)[nH]2)c1
inactive: dose: 10.0 mg/kg/injection, schedule: Q04DX003 (ip), vehicle: saline with Tween-80 101 % of control | dose: 20.0 mg/kg/injection, schedule: Q04DX003 (ip), vehicle: saline with Tween-80 92 % of control | dose: 40.0 mg/kg/injection, schedule: Q04DX003 (ip), vehicle: saline with Tween-80 95 % of control

COC1CC(OS(=O)(=O)c2ccc(C)cc2)C(O)C(C)O1 (stereo not given)
inactive: [1] 103 % of control | dose: 100.0 mg/kg/injection, schedule: Q01DX009 (ip), vehicle: saline with Tween-80 96 % of control | [2] 100 % of control | [3] 94 % of control | dose: 200.0 mg/kg/injection, schedule: Q01DX009 (ip), vehicle: saline with Tween-80 94 % of control | [4] 100 % of control | [5] 100 % of control | dose: 400.0 mg/kg/injection, schedule: Q01DX009 (ip), vehicle: saline with Tween-80 96 % of control | [6] 97 % of control

CCOc1ccc(C(=O)Cc2ccccc2)cc1
inactive: [2] 89 % of control | [4] 86 % of control | [6] 91 % of control

C[n+]1ccc(Cl)c2ccc(Cl)cc21
inactive: dose: 10.0 mg/kg/injection, schedule: Q01DX001 (ip), vehicle: saline 100 % of control | dose: 20.0 mg/kg/injection, schedule: Q01DX001 (ip), vehicle: saline 102 % of control | dose: 40.0 mg/kg/injection, schedule: Q01DX001 (ip), vehicle: saline 102 % of control

Cc1nc2nc[nH]c(=O)c2nc1C
inactive: dose: 16.0 mg/kg/injection, schedule: Q01DX Z (ip), vehicle: methylcellulose (MC) 92 % of control | dose: 31.0 mg/kg/injection, schedule: Q01DX Z (ip), vehicle: methylcellulose (MC) 89 % of control | dose: 62.0 mg/kg/injection, schedule: Q01DX Z (ip), vehicle: methylcellulose (MC) 103 % of control | dose: 125.0 mg/kg/injection, schedule: Q01DX Z (ip), vehicle: methylcellulose (MC) 93 % of control and 97 % of control | dose: 250.0 mg/kg/injection, schedule: Q01DX Z (ip), vehicle: methylcellulose (MC) 107 % of control

Nc1ccc(O)c2ccccc12
inactive: dose: 6.25 mg/kg/injection, schedule: Q04DX003 (ip), vehicle: other 97 % of control

CCOc1cccc(Cc2cn(CCC#N)c(=O)[nH]c2=O)c1
inactive: [7] 108 % of control | [8] 89 % of control | [9] 89 % of control

O=C(O)C1CCCC1C(=O)O (stereo not given)
inactive: dose: 75.0 mg/kg/injection, schedule: Q04DX003 (ip), vehicle: saline 94 % of control | dose: 150.0 mg/kg/injection, schedule: Q04DX003 (ip), vehicle: saline 102 % of control | dose: 300.0 mg/kg/injection, schedule: Q04DX003 (ip), vehicle: saline 95 % of control

c1coc(C2SCSCS2)c1
inactive: [7] 105 % of control | [8] 101 % of control | [9] 95 % of control

CC(=O)Nc1cccc(/C=C/C=C/c2ccc([N+](=O)[O-])cc2)c1
inactive: [2] 93 % of control | [4] 90 % of control | [6] 90 % of control

CS(=O)(=O)N(c1nc2ccccc2s1)S(C)(=O)=O
inactive: dose: 100.0 mg/kg/injection, schedule: Q04DX003 (ip), vehicle: carboxymethylcellulose (CMC) 95 % of control | dose: 200.0 mg/kg/injection, schedule: Q04DX003 (ip), vehicle: carboxymethylcellulose (CMC) 93 % of control | dose: 400.0 mg/kg/injection, schedule: Q04DX003 (ip), vehicle: carboxymethylcellulose (CMC) 95 % of control

COC(=O)[C@]1(C)CCC[C@]2(C)c3ccc(C(C)C)cc3CC[C@@H]12
inactive: dose: 0.5 mg/kg/injection, schedule: Q01DX009 (ip), vehicle: Klucel (hydroxypropylcellulose) (HPC) 100 % of control | dose: 0.5 mg/kg/injection, schedule: Q04DX003 (ip), vehicle: Klucel (hydroxypropylcellulose) (HPC) 107 % of control | dose: 1.0 mg/kg/injection, schedule: Q01DX009 (ip), vehicle: Klucel (hydroxypropylcellulose) (HPC) 111 % of control | dose: 1.0 mg/kg/injection, schedule: Q04DX003 (ip), vehicle: Klucel (hydroxypropylcellulose) (HPC) 93 % of control | dose: 2.0 mg/kg/injection, schedule: Q01DX009 (ip), vehicle: Klucel (hydroxypropylcellulose) (HPC) 98 % of control | dose: 2.0 mg/kg/injection, schedule: Q04DX003 (ip), vehicle: Klucel (hydroxypropylcellulose) (HPC) 98 % of control | [2] 96 % of control | [4] 107 % of control | [6] 102 % of control

Nc1nc(SCc2ccccc2)nc2nc[nH]c12
inactive: dose: 50.0 mg/kg/injection, schedule: Q01DX001 (ip), vehicle: Klucel (hydroxypropylcellulose) (HPC) 91 % of control | [10] 95 % of control | dose: 200.0 mg/kg/injection, schedule: Q01DX001 (ip), vehicle: Klucel (hydroxypropylcellulose) (HPC) 93 % of control

N=C(N)c1ccc(-c2nc3ccc(C(=N)N)cc3[nH]2)cc1
inactive: dose: 12.5 mg/kg/injection, schedule: Q04DX003 (ip), vehicle: saline 100 % of control and 103 % of control | dose: 25.0 mg/kg/injection, schedule: Q04DX003 (ip), vehicle: saline 100 % of control and 103 % of control | dose: 50.0 mg/kg/injection, schedule: Q04DX003 (ip), vehicle: saline 100 % of control and 103 % of control

CN(C)C(=O)CNc1ccc(S(=O)(=O)c2ccc(Cl)cc2)cc1
inactive: [2] 101 % of control | [4] 101 % of control | [6] 95 % of control

O=[N+]([O-])c1sc2ccccc2c1/C=C/c1csc2ccccc12
inactive: [1] 87 % of control | [3] 91 % of control | [5] 97 % of control

CCCCCSP(=O)(SCCCCC)c1ccccc1
inactive: dose: 100.0 mg/kg/injection, schedule: Q01DX009 (ip), vehicle: Klucel (hydroxypropylcellulose) (HPC) 91 % of control | dose: 200.0 mg/kg/injection, schedule: Q01DX009 (ip), vehicle: Klucel (hydroxypropylcellulose) (HPC) 94 % of control

Nc1nc2c(c(-c3ccc(Cl)cc3)n1)CN(CCC(=O)O)C2=O
inactive: [1] 100 % of control | dose: 100.0 mg/kg/injection, schedule: Q04DX003 (ip), vehicle: saline 98 % of control | [3] 105 % of control | dose: 200.0 mg/kg/injection, schedule: Q04DX003 (ip), vehicle: saline 98 % of control | [5] 102 % of control | dose: 400.0 mg/kg/injection, schedule: Q04DX003 (ip), vehicle: saline 98 % of control

ONC12CC3CC(CC(C3)C1)C2
inactive: dose: 12.5 mg/kg/injection, schedule: Q01DX009 (ip), vehicle: Klucel (hydroxypropylcellulose) (HPC) 98 % of control | dose: 25.0 mg/kg/injection, schedule: Q01DX009 (ip), vehicle: Klucel (hydroxypropylcellulose) (HPC) 95 % of control | dose: 50.0 mg/kg/injection, schedule: Q01DX009 (ip), vehicle: Klucel (hydroxypropylcellulose) (HPC) 95 % of control | [10] 97 % of control

Oc1cc(-c2ccccc2)c(-c2ccccc2)c(-c2ccccc2)c1-c1ccccc1
inactive: dose: 100.0 mg/kg/injection, schedule: Q01DX001 (ip), vehicle: saline with Tween-80 100 % of control | dose: 200.0 mg/kg/injection, schedule: Q01DX001 (ip), vehicle: saline with Tween-80 90 % of control | dose: 400.0 mg/kg/injection, schedule: Q01DX001 (ip), vehicle: saline with Tween-80 88 % of control

Source: PubChem BioAssay AID248 (DTP/NCI, 2004)
